# “Also recorded” adds a separate entry of the source.
# What was measured:
# [1] = target: T1, GA activity of NIH 3T3 cells stably expressing Dbl or Cdc42(F28L) (Mus musculus, UniProt D3Z7P3); assay: GA activity in mitochondrial fractions of treated transformed NIH 3T3 cells; format: cell-based
# T1 construct: endogenous in cells; host or cells: NIH 3T3 cells stably expressing Dbl or Cdc42(F28L); mitochondrial fraction
# T1 sequence (D3Z7P3 55-603 isoform D3Z7P3-2): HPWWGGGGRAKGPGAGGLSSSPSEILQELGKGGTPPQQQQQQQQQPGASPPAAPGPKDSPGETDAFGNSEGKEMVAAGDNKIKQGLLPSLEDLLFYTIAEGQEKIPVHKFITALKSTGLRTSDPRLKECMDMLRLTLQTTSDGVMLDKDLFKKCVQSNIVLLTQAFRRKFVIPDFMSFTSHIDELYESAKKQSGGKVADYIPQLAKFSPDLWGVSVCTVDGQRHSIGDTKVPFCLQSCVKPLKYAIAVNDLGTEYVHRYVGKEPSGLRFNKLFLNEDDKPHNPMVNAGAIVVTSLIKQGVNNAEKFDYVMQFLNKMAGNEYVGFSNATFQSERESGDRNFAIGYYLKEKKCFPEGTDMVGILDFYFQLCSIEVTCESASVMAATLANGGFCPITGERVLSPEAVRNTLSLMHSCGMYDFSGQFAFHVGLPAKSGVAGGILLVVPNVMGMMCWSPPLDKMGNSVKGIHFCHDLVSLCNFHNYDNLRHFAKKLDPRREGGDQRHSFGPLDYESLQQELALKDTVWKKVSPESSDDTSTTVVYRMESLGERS
# Protocol: (§1) 100%=620 moles of glutamine hydrolyzed per minute per mole of enzyme. Data represent the average of 3 experiments (±s.d.). […] Following precipitation of the beads and re-suspension, the samples were analyzed by Western blotting with anti-V5 antibody. […] Data represent the average of 3 experiments (±s.d.). […] Data represent the average of 3 experiments (±s.d.). […] Data represent the average of 3 experiments (±s.d.). FIG. 3E NIH 3T3 cells transiently expressing Dbl were assayed for focus formation in the presence of 10 μM 968 alone or together with 7 mM dimethyl α-ketoglutarate. […] 100%=680 nM glutamine hydrolyzed per minute per 10^5 cells. Data are the average of 3 experiments (±s.d.). […] 100%=750 nM glutamine hydrolyzed per minute per 10^5 cells. Data represent the average of 3 experiments (±s.d.).
# (§2) FIGS. 4A-E illustrate the role of glutaminase C activity in cellular transformation. […] Data represent the average of 3 experiments (±s.d.). […] Data represent the average of 3 experiments (±s.d.). […] 100% represents the activity measured in untreated Dbl-transformed cells. The data represent the average of 2 experiments. […] 100% represents the activity measured in untreated SKBR3 cells. The data represent the average of 2 experiments. […] Data represent the average of 3 experiments (±s.d.).
# FIGS. 11A-E illustrate the effects of different treatments on GA activity. […] The addition of Pi stimulated the GA activity in control 3T3 cells, Dbl-expressing cells, and Cdc42(F28L)-expressing cells by ˜6-fold, 2-fold, and 3-fold, respectively. 100% represents the Pi-stimulated activity measured for Dbl-transformed cells that were not treated with 968. Data is the average of 3 experiments (±s.d.). […] The addition of Pi stimulated the GA activity of HMECs, MDA-MB231 cells, and SKBR3 cells by ˜5-fold, 2-fold, and 1.4-fold, respectively. 100% represents the Pi-stimulated activity for SKBR3 cells that were not treated with 968. Data are the average of 3 experiments (±s.d.). […] Mitochondrial fractions were prepared from equal numbers of cells and assayed for GA activity in the presence or absence of 133 mM Pi. The data are plotted as the percentage of GA activity measured for untreated SKBR3 cells and represent the average of 2 experiments. […] 100% represents the Pi-stimulated activity measured for untreated Dbl-transformed cells. The data represent the average of 2 experiments. […] 100% represents the Pi-stimulated activity for untreated SKBR3 cells. The data represent the average of 2 experiments.
# Dbl expressing NIH 3T3 cells were treated for 48 hours in the presence or absence of 968 (10 μM), Bay 11-7082 (2 μM) or Rapamycin (100 nM). Mitochondria were then isolated from the treated cells and assayed for glutaminase activity in the absence or presence of phosphate.
# Mitochondrial preparations were obtained using the mitochondria isolation kit from QIAGEN (Cat #37612). A suspension containing 2×10^7 cells was transferred into a 50 ml conical tube and centrifuged at 500×g for 10 minutes at 4° C. The pellets were resuspended in 2 ml of ice-cold lysis buffer (supplied by QIAGEN) and incubated for 10 minutes at 4° C. using an end-over-end shaker. The lysates were centrifuged at 1000×g for 10 minutes at 4° C., and the pellets were resuspended in a buffer supplied by the manufacturer and disrupted completely by using a blunt-ended, 23-gauge needle and a syringe, followed by centrifugation at 6000×g for 20 minutes at 4° C. […]
# [2] = tested on: GA activity of SKBR3 cells; assay: GA activity in mitochondrial fractions of treated SKBR3 cells; format: cell-based, human; conditions: 2 μM
# Protocol: as §1, §2
# FIGS. 11A-E illustrate the effects of different treatments on GA activity. […] The addition of Pi stimulated the GA activity in control 3T3 cells, Dbl-expressing cells, and Cdc42(F28L)-expressing cells by ˜6-fold, 2-fold, and 3-fold, respectively. 100% represents the Pi-stimulated activity measured for Dbl-transformed cells that were not treated with 968. Data is the average of 3 experiments (±s.d.). […] The addition of Pi stimulated the GA activity of HMECs, MDA-MB231 cells, and SKBR3 cells by ˜5-fold, 2-fold, and 1.4-fold, respectively. […] The data are plotted as the percentage of GA activity measured for untreated SKBR3 cells and represent the average of 2 experiments. […] 100% represents the Pi-stimulated activity measured for untreated Dbl-transformed cells. […]
# GAC phosphorylation = target: T2, GAC phosphorylation (Mus musculus, UniProt D3Z7P3); assay: 2-D gel analysis of V5-GAC phosphorylation states from treated Dbl cells; format: cell-based; conditions: 48 hours
# T2 construct: expressed in transfected cells; host or cells: NIH 3T3 cells (stably expressing Dbl, or parental), transient transfection
# T2 sequence (D3Z7P3 55-603 isoform D3Z7P3-2 limits assumed): T1 sequence (D3Z7P3 55-603 isoform D3Z7P3-2)
# Protocol: NIH 3T3 cells stably expressing the Dbl oncogene, were transiently transfected with DNA encoding a VS-tagged GAC, and then one sample was treated with 968 (10 μM) for 48 hours. The cells were then harvested and the ectopically expressed GAC was isolated by immunoprecipitation via the V5 tag. The samples were then subjected to 2-D gel analysis to separate the V5-GAC by charge and size, and the V5-tagged GAC was visualized by Western blotting using an anti-V5 antibody.
# GAC runs distinctly on a 2D gel depending whether it is expressed in normal (untransformed) NIH 3T3 cells or in NIH 3T3 cells which are transformed by the Dbl oncogene. Specifically, there is one major species of GAC present in NIH 3T3 cells whereas in Dbl cells, two additional species of GAC appear which migrate with a more negative charge but at the same molecular mass as the original species (FIG. 21, first and second panels). […] Additionally, it has been shown that small molecules of the 968 family which are able to inhibit GAC in vivo do so by blocking the ability of GAC to become phosphorylated. Thus, it was of great interest to identify the amino acid(s) on GAC whose phosphorylation is causal in the activation of this enzyme.
# [3] = tested on: NIH 3T3 cells expressing oncogenic Dbl; assay: Dbl-induced cellular transformation (focus formation, growth in low serum, soft agar); format: cell-based, mouse; conditions: focus formation / growth in low serum
# Protocol: FIGS. 1A-E illustrate that the small molecule 968 inhibits cellular transformation. […] Cells were fixed and stained with crystal violet for counting of foci. Right: 968 was serially diluted (10, 5, 2.5, and 1.25 μM) and evaluated for its ability to inhibit focus formation. […] After 6 days, the cells were counted. 100% represents the number of Dbl-transformed cells counted in the absence of 968 (27.5×10^4 cells). Data represent the average of 3 experiments (±s.d.). […] At the indicated times, the cells were counted. Data represent the average of 3 experiments (±s.d.).
# FIGS. 2A-G illustrate effects of 968 on the transforming activity of constitutively active Rho GTPases and human breast cancer cells. […] Cells were scored after 14 days and plotted as the percentage of the total number of colonies greater than 50 μm in diameter. Data represent the average of 3 experiments (±s.d.). […] Data represent the average of 3 experiments (±s.d.). […] Data represent the average of 3 experiments (±s.d.). […] After 24 hours at 37° C., the migratory cells were fixed, stained with GIEMSA, and counted. Data represent the average of 3 experiments (±s.d.). […] Data represent the average of 3 experiments (±s.d.). […] Data represent the average of 3 experiments (±s.d.). […] Data represent the average of 3 experiments (±s.d.).
# FIGS. 5A-C illustrate comparative abilities of 968 and other benzo[a]phenanthridinones to inhibit the transforming activity of oncogenic Dbl and H-Ras. […] Histograms show the relative levels of Dbl-induced focus formation for the different treatments, compared to Dbl-induced focus formation measured in the presence of DMSO (i.e. solvent control). Data represent the average of 3 experiments (mean±s.d.). […] Histograms show the relative levels of Ras(G12V)-induced focus formation measured for the different treatments, compared to Ras(G12V)-induced focus formation measured in the presence of DMSO (solvent control). Data represent the average of 3 experiments (mean±s.d.). FIG. 5C NIH 3T3 cells stably expressing H-Ras(G12V) that were cultured in DMEM supplemented with 1% calf serum, with the indicated amounts of 968. After 6 days, cells are trypsinized and counted. 100% represents the number of cells counted in the absence of 968, i.e. 26×10^4 cells. Data represent the average of 3 experiments (mean±s.d.).
# [4] = target: T3, mouse GAC (E. coli-expressed mouse ortholog of human GAC) (Mus musculus, UniProt D3Z7P3); assay: Recombinant glutaminase activity assay; format: biochemical
# T3 construct: A plasmid encoding mouse GAC (residues 128-603) was cloned into the pET28a vector; His (N, cleaved yes); made in house; host or cells: E. coli (pET28a)
# T3 sequence (D3Z7P3 128-603 isoform D3Z7P3-2): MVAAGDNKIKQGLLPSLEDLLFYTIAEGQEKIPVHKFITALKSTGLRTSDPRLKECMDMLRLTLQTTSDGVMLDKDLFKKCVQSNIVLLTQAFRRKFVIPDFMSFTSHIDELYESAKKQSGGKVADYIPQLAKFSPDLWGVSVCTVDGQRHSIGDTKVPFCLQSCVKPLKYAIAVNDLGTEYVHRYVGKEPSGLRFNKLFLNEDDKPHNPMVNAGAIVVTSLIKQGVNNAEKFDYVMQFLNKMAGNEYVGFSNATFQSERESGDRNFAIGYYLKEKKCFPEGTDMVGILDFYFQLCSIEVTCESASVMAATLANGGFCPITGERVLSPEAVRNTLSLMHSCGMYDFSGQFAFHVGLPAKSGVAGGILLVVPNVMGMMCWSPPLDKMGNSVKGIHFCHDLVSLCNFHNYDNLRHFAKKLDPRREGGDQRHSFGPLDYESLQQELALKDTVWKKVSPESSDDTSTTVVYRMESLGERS
# Protocol: as §1
# The activity of the E. coli-expressed recombinant mouse ortholog of human GAC were assayed in the presence of 0 ([…]), 10 (∇) or 20 (▪) μM 968 and inorganic phosphate in the form of dipotassium hydrogen phosphate. […] The data are plotted as GA activity as function of varying concentrations of glutamine or inorganic phosphate. The data are the average of 3 experiments and are plotted as mean±SEM.
# Glutaminase activity assays were performed on recombinant enzyme as previously described (Kenny et al., “Bacterial Expression, Purification and Characterization of Rat Kidney-Type Mitochondrial Glutaminase,” Protein Expr. Purif. 31:140-148 (2003), which is hereby incorporated by reference in its entirety). A plasmid encoding mouse GAC (residues 128-603) was cloned into the pET28a vector and the protein was expressed with an N-terminal histidine (His)-tag. The tag was cleaved using thrombin and the protein was further purified by anion-exchange and gel-filtration chromatography. […] The reaction mixture was incubated at room temperature for 45 minutes and the absorbance at 340 nm was recorded for each sample against a water blank. The absorbance of the sample with just the cocktail mixture was subtracted from each reading to calculate the activity of the enzyme.
compound,measurement,setting,value
"CC(C)(C)c1ccc(S(=O)(=O)/C=C/C#N)cc1 [BAY 11-7082, E3((4-t-butylphenyl)-sulfonyl)-2-propenenitrile]",mitochondrial glutaminase activity,"[1]; Dbl expressing NIH 3T3 cells, 48 hours, Bay 11-7082 (2 μM), Rapamycin (100 nM)",significant loss of glutaminase activity
same,direct stimulation of the enzyme by phosphate (Pi-stimulated GA activity),"[1]; Dbl-transformed cells, 2 μM",little or no effect
same,basal (phosphate-independent) GA activity,"[1]; Dbl-transformed cells, 2 μM, 2 days",significantly reduces their basal GA activity
same,basal (phosphate-independent) GA activity,[2],significantly reduces their basal GA activity
same,direct stimulation of the enzyme by phosphate (Pi-stimulated GA activity),[2],little or no effect
same,most negative migrating major species of GAC on 2D gel,GAC phosphorylation,loss of the most negative migrating major species of GAC
CC1(C)CC(=O)C2=C(C1)c1c(ccc3ccccc13)NC2c1cccc(Br)c1 (centres unmarked) [Compound 335],blocking of Dbl-induced transformation,[3],little or no inhibition; also recorded: less effective at blocking Dbl-transformation
same,inhibition of enzymatic activity of purified mouse GAC,[4],little ability to inhibit enzyme activity
